In PubChem BioAssay (NCI):
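A five-concentration, 48-hour dose response in 96-well plates underlies each endpoint, interpolated linearly between surrounding concentrations. GI50 = concentration required for 50% inhibition of growth. At the TGI there is no net growth.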

Tests used:
Test in all cases: growth of human tumour cells (NCI), 48 h
786-0 renal = tested on: 786-0 renal
A498 renal = tested on: A498 renal
A549 NSCLC = tested on: A549 NSCLC
ACHN renal = tested on: ACHN renal
BT-549 breast = tested on: BT-549 breast
CAKI-1 renal = tested on: CAKI-1 renal
CCRF-CEM leukemia = tested on: CCRF-CEM leukemia
COLO 205 colon = tested on: COLO 205 colon
DU-145 prostate = tested on: DU-145 prostate
HCC-2998 colon = tested on: HCC-2998 colon
HCT-116 colon = tested on: HCT-116 colon
HCT-15 colon = tested on: HCT-15 colon
HL-60(TB) leukemia = tested on: HL-60(TB) leukemia
HOP-62 NSCLC = tested on: HOP-62 NSCLC
HOP-92 NSCLC = tested on: HOP-92 NSCLC
HS 578T breast = tested on: HS 578T breast
HT29 colon = tested on: HT29 colon
IGROV1 ovarian = tested on: IGROV1 ovarian
K-562 leukemia = tested on: K-562 leukemia
KM12 colon = tested on: KM12 colon
LOX IMVI melanoma = tested on: LOX IMVI melanoma
M14 melanoma = tested on: M14 melanoma
MALME-3M melanoma = tested on: MALME-3M melanoma
MCF7 breast = tested on: MCF7 breast
MDA-MB-231 breast = tested on: MDA-MB-231 breast
MDA-MB-435 = tested on: MDA-MB-435
MOLT-4 leukemia = tested on: MOLT-4 leukemia
NCI-H226 lung = tested on: NCI-H226 lung
NCI-H23 lung = tested on: NCI-H23 lung
NCI-H460 lung = tested on: NCI-H460 lung
NCI-H522 lung = tested on: NCI-H522 lung
NCI/ADR-RES ovarian = tested on: NCI/ADR-RES ovarian
OVCAR-3 ovarian = tested on: OVCAR-3 ovarian
OVCAR-4 ovarian = tested on: OVCAR-4 ovarian
OVCAR-5 ovarian = tested on: OVCAR-5 ovarian
OVCAR-8 ovarian = tested on: OVCAR-8 ovarian
PC-3 prostate = tested on: PC-3 prostate
RPMI-8226 leukemia = tested on: RPMI-8226 leukemia
RXF 393 renal = tested on: RXF 393 renal
SF-268 CNS = tested on: SF-268 CNS
SF-295 CNS = tested on: SF-295 CNS
SF-539 CNS = tested on: SF-539 CNS
SK-MEL-2 melanoma = tested on: SK-MEL-2 melanoma
SK-MEL-28 melanoma = tested on: SK-MEL-28 melanoma
SK-MEL-5 melanoma = tested on: SK-MEL-5 melanoma
SK-OV-3 ovarian = tested on: SK-OV-3 ovarian
SN12C renal = tested on: SN12C renal
SNB-19 CNS = tested on: SNB-19 CNS
SNB-75 CNS = tested on: SNB-75 CNS
SR leukemia = tested on: SR leukemia
SW-620 colon = tested on: SW-620 colon
T-47D breast = tested on: T-47D breast
TK-10 renal = tested on: TK-10 renal
U251 CNS = tested on: U251 CNS
UACC-257 melanoma = tested on: UACC-257 melanoma
UACC-62 melanoma = tested on: UACC-62 melanoma
UO-31 renal = tested on: UO-31 renal

`O=C1NC(=NCCc2ccc(F)cc2)S/C1=C\c1ccc2ncccc2c1` gave a GI50 (786-0 renal) of over 25 µM, a TGI (786-0 renal) of over 25 µM and a GI50 (A498 renal) of over 25 µM. The TGI (A498 renal) was over 25 µM, the GI50 (A549 NSCLC) was over 25 µM and the TGI (A549 NSCLC) was over 25 µM. For the same compound, the GI50 (ACHN renal) was over 25 µM, the TGI (ACHN renal) was over 25 µM and the GI50 (BT-549 breast) was over 25 µM. The TGI (BT-549 breast) was over 25 µM, the GI50 (CAKI-1 renal) was over 25 µM and the TGI (CAKI-1 renal) was over 25 µM. For the same compound, the GI50 (CCRF-CEM leukemia) was over 25 µM, the TGI (CCRF-CEM leukemia) was over 25 µM and the GI50 (COLO 205 colon) was over 25 µM. The TGI (COLO 205 colon) was over 25 µM, the GI50 (DU-145 prostate) was over 25 µM and the TGI (DU-145 prostate) was over 25 µM. It also gave a GI50 (HCC-2998 colon) of over 25 µM, a TGI (HCC-2998 colon) of over 25 µM and a GI50 (HCT-116 colon) of 13.8 µM. The TGI (HCT-116 colon) was over 25 µM, the GI50 (HCT-15 colon) was over 25 µM and the TGI (HCT-15 colon) was over 25 µM. The GI50 (HL-60(TB) leukemia) was over 25 µM, the TGI (HL-60(TB) leukemia) was over 25 µM and the GI50 (HOP-62 NSCLC) was over 25 µM. It also gave a TGI (HOP-62 NSCLC) of over 25 µM, a GI50 (HOP-92 NSCLC) of over 25 µM and a TGI (HOP-92 NSCLC) of over 25 µM. It also gave a GI50 (HS 578T breast) of over 25 µM, a TGI (HS 578T breast) of over 25 µM and a GI50 (HT29 colon) of over 25 µM. For the same compound, the TGI (HT29 colon) was over 25 µM, the GI50 (IGROV1 ovarian) was over 25 µM and the TGI (IGROV1 ovarian) was over 25 µM. For the same compound, the GI50 (K-562 leukemia) was over 25 µM, the TGI (K-562 leukemia) was over 25 µM and the GI50 (KM12 colon) was over 25 µM. For the same compound, the TGI (KM12 colon) was over 25 µM, the GI50 (LOX IMVI melanoma) was over 25 µM and the TGI (LOX IMVI melanoma) was over 25 µM. The GI50 (M14 melanoma) was over 25 µM, the TGI (M14 melanoma) was over 25 µM and the GI50 (MALME-3M melanoma) was over 25 µM. The TGI (MALME-3M melanoma) was over 25 µM, the GI50 (MCF7 breast) was over 23.1 µM and the TGI (MCF7 breast) was over 25 µM. For the same compound, the GI50 (MDA-MB-231 breast) was over 25 µM, the TGI (MDA-MB-231 breast) was over 25 µM and the GI50 (MDA-MB-435) was over 25 µM. It also gave a TGI (MDA-MB-435) of over 25 µM, a GI50 (MOLT-4 leukemia) of over 25 µM and a TGI (MOLT-4 leukemia) of over 25 µM. It also gave a GI50 (NCI-H226 lung) of over 25 µM, a TGI (NCI-H226 lung) of over 25 µM and a GI50 (NCI-H23 lung) of over 25 µM. The TGI (NCI-H23 lung) was over 25 µM, the GI50 (NCI-H460 lung) was over 25 µM and the TGI (NCI-H460 lung) was over 25 µM. The GI50 (NCI-H522 lung) was over 25 µM, the TGI (NCI-H522 lung) was over 25 µM and the GI50 (NCI/ADR-RES ovarian) was over 25 µM. For the same compound, the TGI (NCI/ADR-RES ovarian) was over 25 µM, the GI50 (OVCAR-3 ovarian) was over 25 µM and the TGI (OVCAR-3 ovarian) was over 25 µM. For the same compound, the GI50 (OVCAR-4 ovarian) was over 25 µM, the TGI (OVCAR-4 ovarian) was over 25 µM and the GI50 (OVCAR-5 ovarian) was over 25 µM. The TGI (OVCAR-5 ovarian) was over 25 µM, the GI50 (OVCAR-8 ovarian) was over 25 µM and the TGI (OVCAR-8 ovarian) was over 25 µM. The GI50 (PC-3 prostate) was over 25 µM, the TGI (PC-3 prostate) was over 25 µM and the GI50 (RPMI-8226 leukemia) was over 25 µM. The TGI (RPMI-8226 leukemia) was over 25 µM, the GI50 (RXF 393 renal) was over 25 µM and the TGI (RXF 393 renal) was over 25 µM. For the same compound, the GI50 (SF-268 CNS) was over 25 µM, the TGI (SF-268 CNS) was over 25 µM and the GI50 (SF-295 CNS) was over 25 µM. It also gave a TGI (SF-295 CNS) of over 25 µM, a GI50 (SF-539 CNS) of over 25 µM and a TGI (SF-539 CNS) of over 25 µM. For the same compound, the GI50 (SK-MEL-2 melanoma) was over 25 µM, the TGI (SK-MEL-2 melanoma) was over 25 µM and the GI50 (SK-MEL-28 melanoma) was over 25 µM. It also gave a TGI (SK-MEL-28 melanoma) of over 25 µM, a GI50 (SK-MEL-5 melanoma) of over 25 µM and a TGI (SK-MEL-5 melanoma) of over 25 µM. It also gave a GI50 (SK-OV-3 ovarian) of over 25 µM, a TGI (SK-OV-3 ovarian) of over 25 µM and a GI50 (SN12C renal) of over 25 µM. The TGI (SN12C renal) was over 25 µM, the GI50 (SNB-19 CNS) was over 25 µM and the TGI (SNB-19 CNS) was over 25 µM. For the same compound, the GI50 (SNB-75 CNS) was over 25 µM, the TGI (SNB-75 CNS) was over 25 µM and the GI50 (SR leukemia) was 7.09 µM. It also gave a TGI (SR leukemia) of over 25 µM, a GI50 (SW-620 colon) of over 23.3 µM and a TGI (SW-620 colon) of over 25 µM. It also gave a GI50 (T-47D breast) of over 25 µM, a TGI (T-47D breast) of over 25 µM and a GI50 (TK-10 renal) of over 25 µM. The TGI (TK-10 renal) was over 25 µM, the GI50 (U251 CNS) was over 25 µM and the TGI (U251 CNS) was over 25 µM. For the same compound, the GI50 (UACC-257 melanoma) was over 25 µM, the TGI (UACC-257 melanoma) was over 25 µM and the GI50 (UACC-62 melanoma) was over 25 µM. It also gave a TGI (UACC-62 melanoma) of over 25 µM, a GI50 (UO-31 renal) of over 25 µM and a TGI (UO-31 renal) of over 25 µM.
